Patent US20250177406A1, “PHARMACEUTICAL COMPOSITION FOR TREATING TUMORS” (Eisai R&D Management Co., Ltd., priority 2022, published 2025)
Like-named read-outs stand apart in the source and are kept apart here.

How the values were obtained:
[1] = tested on: xenograft model with the KRAS G12C mutation-positive human bladder cancer cell line UM-UC-3; details: UM-UC-3 xenograft, E7386 25 mg/kg, sotorasib 100 mg/kg, once per day, oral
[2] = tested on: xenograft model with the KRAS G12C mutation-positive human colorectal cancer cell line SW837; details: sotorasib 100 mg/kg, once per day, oral
[3] = tested on: xenograft model with the KRAS G12C mutation-positive human non-small cell lung cancer cell line NCI-H358; test: Antitumor effect of combined administration with adagrasib in xenograft model (tumor volume); assay type: in vivo, nude mice; parameters: unit not given beside the values; details: adagrasib 10 mg/kg, once per day, oral
Protocol: Experimental conditions for drug efficacy test using mice with different cell lines (suspension media, cell counts for transplantation, lineages of mice, administered drugs, days of initiation of administration, test periods) were shown in Table 5. Each cell line was prepared with suspension medium to reach an intended cell count for transplantation, and the resulting suspension was subcutaneously transplanted into nude mice (6-week-old, female) at the body flank.
The long diameter and short diameter of tumors generated in each mouse were measured with a Digimatic Caliper (manufactured by Mitutoyo Corp.) twice a week from day 1 as the day of initiation of administration to the final day of the test.
The tumor volume was calculated by the following formula.
Numbers in Table 6 each indicate mean±standard error (SEM) of tumor volume. In the test carried out, six mice were used per group.

[4] = tested on: xenograft model with the KRAS G12C mutation-positive human non-small cell lung cancer cell line NCI-H358; details: sotorasib 100 mg/kg, once per day, oral
Protocol: Matrigel/HBSS (50:50) was added to a KRAS G12C mutation-positive human non-small cell lung cancer cell line, NCI-358 cells, to prepare a cell suspension of 8×10^6 cells. The cell suspension was subcutaneously transplanted into nude mice (CAnN.Cg-Foxn1 nu/CrlCrlj, from Charles River Laboratories Japan, Inc.) at the body flank. Six mice were used per group. The date of transplantation was defined as day 1. […] No drug was administered to the control group.
The date of the initiation of administration was defined as day 1. On days 4, 8, 11, and 15, the long diameter and short diameter of tumors generated in each mouse were measured with a Digimatic Caliper (manufactured by Mitutoyo Corp.).

[5] = tested on: KRAS G12D mutation-positive human bile duct cancer cell line SNU-869; test: Cell growth inhibitory activity of combined treatment, ultra-low adsorption plate, CellTiter-Glo 3D, 5 days; assay type: cell-based; details: 120 h, SNU-869, MRTX1133 alone
Protocol: (§1) With different KRAS mutation-positive cell lines, combined treatment of the compound represented by formula (I) and a KRAS inhibitor was evaluated on growth inhibitory activity. […] Cells were seeded in 96-well flat-bottomed ultra-low adsorption plate (manufactured by Corning Incorporated) at 5000 cells/well, and cultured at 5% CO2 and 37° C. for 1 day. […] The drug solutions were prepared by diluting their DMSO stocks with medium to specific concentrations, and added in such a manner that the volume of the culture medium reached 100 μL/well after addition of the drugs. After the culture for 5 days, 30 μL of CellTiter-Glo 3D Reagent (manufactured by Promega Corporation) was added to each well and reacted under shading for 30 minutes, and 50-μL portions were then transferred into a separate white 96-well plate (manufactured by Greiner Bio-One International GmbH), and the emission intensity of luciferase was measured with a plate reader (manufactured by PerkinElmer, Inc.). The measurement values were defined as the relative cell counts.

[6] = tested on: KRAS G12D mutation-positive human endometrial cancer cell line HEC-1-B; test: as above; assay type: cell-based; details: 120 h, MRTX1133 alone
Protocol: as §1

| Compound | tumor volume, mean ± SEM ([1]; Day 5) | tumor volume, mean ± SEM ([1]; Day 12) | tumor volume, mean ± SEM ([1]; Day 15) | tumor volume, mean ± SEM ([2]; Day 5, E7386 25 mg/kg) | tumor volume, mean ± SEM ([2]; Day 12, E7386 25 mg/kg) | tumor volume, mean ± SEM ([3]; Day 4, E7386 25 mg/kg) | tumor volume, mean ± SEM ([3]; Day 8, E7386 25 mg/kg) | tumor volume, mean ± SEM ([3]; Day 11, E7386 25 mg/kg) | tumor volume, mean ± SEM ([3]; Day 15, E7386 25 mg/kg) | tumor volume, mean ± SEM ([3]; Day 18, E7386 25 mg/kg) | tumor volume, mean ± SEM ([4]; Day 11, E7386 25 mg/kg) | tumor volume, mean ± SEM ([4]; Day 15, E7386 25 mg/kg) | GI50 [5] | GI50 [6] |
| --- | --- | --- | --- | --- | --- | --- | --- | --- | --- | --- | --- | --- | --- | --- |
| C=CCN1CC(=O)N2[C@@H](Cc3ccc(O)cc3F)C(=O)N(Cc3cccc(N4CC(N5CCN(CC)CC5)C4)n3)C[C@@H]2N1C(=O)NCc1ccccc1 [E7386, (6S,9aS)-N-benzyl-8-((6-(3-(4-ethylpiperazin-1-yl)azetidin-1-yl)pyridin-2-yl)methyl)-6-((2-fluoro-4-hydroxyphenyl)methyl)-4,7-dioxo-2-(prop-2-en-1-yl)-octahydro-1H-pyrazino[2,1-c][1,2,4]triazine-1-carboxamide] | 337.4 ± 20.9 | 1487.0 ± 59.7 | 2526.8 ± 123.1 | 221.5 ± 9.5 | 340.9 ± 17.5 | 251.2 ± 8.1 | 327.4 ± 24.9 | 445.0 ± 26.3 | 579.1 ± 45.1 | 729.2 ± 56.7 | 519.9 ± 34.1 | 714.4 ± 55.5 | – | – |
| C#Cc1c(F)ccc2cc(O)cc(-c3ncc4c(N5CC6CCC(C5)N6)nc(OC[C@@]56CCCN5C[C@@H](F)C6)nc4c3F)c12 [MRTX1133, 4-(4-((1R,5S)-3,8-diazabicyclo[3.2.1]octan-3-yl)-8-fluoro-2-(((2R,7aS)-2-fluorohexahydro-1H-pyrrolidin-7a-yl)methoxy)pyrodo[4,3-d]pyrimidin-7-yl)-5-et hynyl-6-fluoronaphthalen-2-ol] | – | – | – | – | – | – | – | – | – | – | – | – | 1.79 nM | 5.37 nM |
